In ChEMBL document CHEMBL1201862, “PubChem BioAssay data set” (2004):
Calls of active or inactive are those of the source.

Assays:
Cytochrome P450 2C9 = Cytochrome P450 2C9 (Homo sapiens, UniProt P11712)
[1] = target: T1, Short transient receptor potential channel 4 (Mus musculus, UniProt Q9QUQ5); assay: mouse TRPC4 channel inhibitors, dose response, cell-based, HEK293 TRPC4/mu-opioid, Fluo-4 calcium (AID 434942); type: functional;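 also: potency of inhibitors blocking the TRPC4 calcium response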
T1 sequence (Q9QUQ5 whole entry): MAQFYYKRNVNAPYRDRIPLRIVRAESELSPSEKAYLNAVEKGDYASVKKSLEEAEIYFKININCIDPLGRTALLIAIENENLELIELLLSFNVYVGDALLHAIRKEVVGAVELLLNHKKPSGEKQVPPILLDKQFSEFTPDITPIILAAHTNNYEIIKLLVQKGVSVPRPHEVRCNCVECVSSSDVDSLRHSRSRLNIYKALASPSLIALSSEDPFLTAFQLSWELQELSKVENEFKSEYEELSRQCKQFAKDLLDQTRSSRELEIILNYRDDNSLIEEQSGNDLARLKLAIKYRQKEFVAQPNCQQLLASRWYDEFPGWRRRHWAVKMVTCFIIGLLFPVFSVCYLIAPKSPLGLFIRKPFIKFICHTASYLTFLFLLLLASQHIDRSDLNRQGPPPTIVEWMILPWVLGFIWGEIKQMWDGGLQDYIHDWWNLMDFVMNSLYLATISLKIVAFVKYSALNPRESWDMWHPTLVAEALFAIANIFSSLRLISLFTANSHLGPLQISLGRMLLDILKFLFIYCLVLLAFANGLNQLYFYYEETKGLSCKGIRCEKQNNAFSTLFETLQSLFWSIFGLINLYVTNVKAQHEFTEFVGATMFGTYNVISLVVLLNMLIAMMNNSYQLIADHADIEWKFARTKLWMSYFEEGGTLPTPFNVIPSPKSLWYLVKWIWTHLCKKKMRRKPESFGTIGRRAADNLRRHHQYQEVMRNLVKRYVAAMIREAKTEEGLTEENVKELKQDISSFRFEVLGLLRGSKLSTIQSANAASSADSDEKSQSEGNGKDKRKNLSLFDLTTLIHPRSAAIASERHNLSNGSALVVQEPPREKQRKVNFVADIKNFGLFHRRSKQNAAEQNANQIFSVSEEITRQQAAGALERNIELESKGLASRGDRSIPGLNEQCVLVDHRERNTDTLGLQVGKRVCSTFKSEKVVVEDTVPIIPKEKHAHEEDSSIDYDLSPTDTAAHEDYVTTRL

[2] = target: T2, DNA repair and recombination protein RAD54-like (Homo sapiens, UniProt Q92698); assay: inhibitors of human RAD54 branch migration, confirmation, biochemical, fluorescence, cherry-picked samples, dose series (AID 651657); type: functional
T2 sequence (Q92698 whole entry): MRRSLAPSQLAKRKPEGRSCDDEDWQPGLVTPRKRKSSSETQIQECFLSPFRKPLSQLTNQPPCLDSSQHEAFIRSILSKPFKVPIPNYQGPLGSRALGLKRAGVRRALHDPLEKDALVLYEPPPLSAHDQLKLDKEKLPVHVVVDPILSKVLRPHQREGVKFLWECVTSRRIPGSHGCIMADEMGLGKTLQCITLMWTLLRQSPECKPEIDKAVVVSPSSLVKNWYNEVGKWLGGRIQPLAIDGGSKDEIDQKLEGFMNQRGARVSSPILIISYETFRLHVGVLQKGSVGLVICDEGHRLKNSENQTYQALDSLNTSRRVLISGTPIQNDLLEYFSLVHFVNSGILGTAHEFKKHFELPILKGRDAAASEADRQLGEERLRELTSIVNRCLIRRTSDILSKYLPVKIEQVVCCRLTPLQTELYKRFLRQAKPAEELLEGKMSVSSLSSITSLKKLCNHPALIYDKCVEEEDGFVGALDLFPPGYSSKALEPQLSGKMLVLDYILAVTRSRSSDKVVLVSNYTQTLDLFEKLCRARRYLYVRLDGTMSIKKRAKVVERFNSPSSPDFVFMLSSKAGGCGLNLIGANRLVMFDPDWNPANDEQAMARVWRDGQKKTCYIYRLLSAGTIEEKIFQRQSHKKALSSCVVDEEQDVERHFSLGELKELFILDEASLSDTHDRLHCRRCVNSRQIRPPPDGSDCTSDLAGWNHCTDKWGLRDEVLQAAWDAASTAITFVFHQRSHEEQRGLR

Cytochrome P450 2D6 = Cytochrome P450 2D6 (Homo sapiens, UniProt P10635);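 also: CYP2D6 member of a cytochrome P450 panel assay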
[3] = Luminescence Cell-Based Dose Response HTS to Identify Inhibitors of 5'UTR Stem-Loop Driven Prion Protein mRNA Translation in H4 Neuroglioblastoma Cells. [Related pubchem assays: 1827 (Project Summary), 1813 (Primary HTS)]; type: functional
HEK293 [4] = assay: inhibitors of LMP1-driven NF-kB reporter, dose response, cell-based, HEK293, luciferase, cherry-pick (AID 588343); type: functional; details: Homo sapiens
[5] = inhibitors of SNCA 5'UTR-driven reporter translation, confirmation, H4 neuroglioma cells, luminescence (AID 1988); type: functional, cell-based
[6] = inhibitors of firefly luciferase expression or activity, dose response, H4 neuroglioma cells, luminescence (AID 1990); type: functional, cell-based
H9c2 = assay: cells; type: functional, cell-based; details: Rattus norvegicus, H9c2, Myocardium;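 also: confirmatory concentration-response retest of ultra-high-throughput screening hits for modulation of myocardial damage; cell death induced by hydrogen peroxide oxidative stress; compound pretreatment for 60 min then peroxide exposure for 2 h; potency is for protecting the cells against peroxide damage rather than for killing them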
HEK293 [7] = assay: NOD2 signaling inhibitors in MDP-stimulated cells, cell-based, uHTS, luminescence (AID 2001); type: functional; details: Homo sapiens
HEK293 [8] = assay: cells; type: functional, cell-based; details: Homo sapiens
HEK293 [9] = assay: NOD1 signaling inhibitors, primary screen, cell-based, luminescence, uHTS (AID 1578); type: functional; details: Homo sapiens
HEK293 [10] = assay: cells; type: functional, cell-based; details: Homo sapiens; remark: listed apart in the source
[11] = target: T1, Short transient receptor potential channel 4; assay: mouse TRPC4 channel activators, dose response, cell-based, HEK293 TRPC4/mu-opioid, Fluo-4 calcium (AID 434937); type: functional
[12] = target: T3, Heat shock factor protein 1 (Mus musculus, UniProt P38532); assay: HSF1 potentiators in luciferase reporter cells, confirmation, cell-based, NIH3T3, luminescence, dose retest (AID 435004); type: functional;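 also: stress induced by proteasome inhibitor MG132 added 30 min after compound; luciferase reporter driven by HSF1 response element in NIH3T3 cells; actives raise luminescence as potentiators of the MG132 stress response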
T3 sequence (P38532 whole entry): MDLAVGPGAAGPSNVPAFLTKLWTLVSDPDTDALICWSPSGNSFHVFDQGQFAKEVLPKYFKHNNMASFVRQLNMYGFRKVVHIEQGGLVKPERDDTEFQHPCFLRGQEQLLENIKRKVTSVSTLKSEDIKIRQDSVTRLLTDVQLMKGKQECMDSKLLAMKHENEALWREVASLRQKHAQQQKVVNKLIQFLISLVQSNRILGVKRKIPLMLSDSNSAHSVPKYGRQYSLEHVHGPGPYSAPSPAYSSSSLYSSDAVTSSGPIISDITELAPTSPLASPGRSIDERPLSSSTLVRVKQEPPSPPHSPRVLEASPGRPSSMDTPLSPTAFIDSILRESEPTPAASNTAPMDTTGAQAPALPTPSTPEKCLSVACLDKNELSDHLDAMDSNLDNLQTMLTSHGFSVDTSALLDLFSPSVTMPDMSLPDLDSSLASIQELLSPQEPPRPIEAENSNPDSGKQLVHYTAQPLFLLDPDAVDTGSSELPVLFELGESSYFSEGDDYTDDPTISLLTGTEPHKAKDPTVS

[13] = target: Luciferin 4-monooxygenase (Photinus pyralis, UniProt P08659); assay: firefly luciferase enzyme inhibitors, dose response, biochemical, luminescence (AID 1891)
[14] = Luminescence Cell-Based Dose Confirmation HTS to Identify Inhibitors of Platelet Dense Granule Release. [Related pubchem assays: 1663 (Primary HTS), 1678 (Summary of Project)]; type: functional
[15] = target: T4, Histone-lysine N-methyltransferase NSD2 (Homo sapiens, UniProt O96028); type: biochemical
T4 sequence (O96028 whole entry): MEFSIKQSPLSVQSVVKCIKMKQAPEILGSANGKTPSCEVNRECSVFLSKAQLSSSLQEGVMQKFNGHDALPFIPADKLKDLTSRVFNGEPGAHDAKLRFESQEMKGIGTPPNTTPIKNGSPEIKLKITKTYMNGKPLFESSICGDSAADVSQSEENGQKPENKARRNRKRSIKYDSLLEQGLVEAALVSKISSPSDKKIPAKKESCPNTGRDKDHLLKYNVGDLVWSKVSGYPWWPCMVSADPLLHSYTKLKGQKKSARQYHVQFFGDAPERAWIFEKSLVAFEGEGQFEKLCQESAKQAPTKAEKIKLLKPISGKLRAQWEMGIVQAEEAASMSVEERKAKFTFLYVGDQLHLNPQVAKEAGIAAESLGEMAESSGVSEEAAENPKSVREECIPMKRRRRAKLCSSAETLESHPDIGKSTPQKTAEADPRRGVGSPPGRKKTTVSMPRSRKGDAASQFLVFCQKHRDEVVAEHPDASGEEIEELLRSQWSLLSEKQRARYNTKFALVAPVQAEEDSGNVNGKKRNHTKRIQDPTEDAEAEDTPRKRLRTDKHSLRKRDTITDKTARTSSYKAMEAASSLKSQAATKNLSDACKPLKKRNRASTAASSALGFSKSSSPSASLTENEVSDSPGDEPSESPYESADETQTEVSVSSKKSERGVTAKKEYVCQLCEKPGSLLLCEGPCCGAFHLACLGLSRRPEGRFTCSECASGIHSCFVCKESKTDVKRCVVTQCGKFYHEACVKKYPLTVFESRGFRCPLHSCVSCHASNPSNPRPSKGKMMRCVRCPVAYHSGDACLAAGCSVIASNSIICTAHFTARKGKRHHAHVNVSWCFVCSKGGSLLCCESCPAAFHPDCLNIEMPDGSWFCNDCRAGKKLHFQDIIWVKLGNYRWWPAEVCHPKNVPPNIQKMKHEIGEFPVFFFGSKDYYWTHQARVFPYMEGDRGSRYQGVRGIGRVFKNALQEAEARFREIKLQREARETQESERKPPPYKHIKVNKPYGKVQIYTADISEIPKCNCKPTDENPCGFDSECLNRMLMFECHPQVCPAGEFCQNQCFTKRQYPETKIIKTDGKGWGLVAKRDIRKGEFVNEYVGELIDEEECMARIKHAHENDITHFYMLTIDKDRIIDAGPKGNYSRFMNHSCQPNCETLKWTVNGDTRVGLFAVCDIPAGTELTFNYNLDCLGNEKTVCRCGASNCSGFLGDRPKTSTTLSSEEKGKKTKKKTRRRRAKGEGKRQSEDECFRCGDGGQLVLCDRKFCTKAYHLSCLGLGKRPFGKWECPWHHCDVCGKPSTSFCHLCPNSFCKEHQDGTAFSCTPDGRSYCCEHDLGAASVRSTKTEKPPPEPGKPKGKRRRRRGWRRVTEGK

[16] = inhibitors of clade B AD8 Env fusion, dose response, cell-based, cherry-pick (AID 652062); type: functional;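 also: luciferase signal from cell-cell fusion driven by HIV-1 clade B AD8 Env; potency is for inhibitors of fusion seen as a drop in luminescence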
[17] = inhibitors of HIV Env-driven cell fusion, dose response, cherry-pick (AID 652057); type: functional, cell-based
Cytochrome P450 2C19 = Cytochrome P450 2C19 (Homo sapiens, UniProt P33261); assay: Cytochrome panel assay with activity outcomes. Panel member name: p450-cyp2c19 Compounds with AC50 equal or less than 10 uM are considered active; type: functional; details: read-out: AC50
Chain of Cytochrome P450 2C19 (P33261 whole entry): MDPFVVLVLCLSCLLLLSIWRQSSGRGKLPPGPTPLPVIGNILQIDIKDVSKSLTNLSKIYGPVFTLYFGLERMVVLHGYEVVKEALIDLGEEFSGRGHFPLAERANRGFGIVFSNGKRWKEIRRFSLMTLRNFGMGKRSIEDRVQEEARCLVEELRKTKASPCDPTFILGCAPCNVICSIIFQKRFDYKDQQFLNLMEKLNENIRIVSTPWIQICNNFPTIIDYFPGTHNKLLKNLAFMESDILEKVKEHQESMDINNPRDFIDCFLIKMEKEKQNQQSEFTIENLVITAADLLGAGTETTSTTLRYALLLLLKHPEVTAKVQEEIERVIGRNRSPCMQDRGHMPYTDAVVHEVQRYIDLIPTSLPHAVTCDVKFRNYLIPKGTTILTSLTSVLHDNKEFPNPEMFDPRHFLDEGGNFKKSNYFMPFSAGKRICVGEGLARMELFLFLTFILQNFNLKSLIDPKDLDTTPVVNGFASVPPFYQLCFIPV

Chain of Cytochrome P450 2C9 (P11712 whole entry): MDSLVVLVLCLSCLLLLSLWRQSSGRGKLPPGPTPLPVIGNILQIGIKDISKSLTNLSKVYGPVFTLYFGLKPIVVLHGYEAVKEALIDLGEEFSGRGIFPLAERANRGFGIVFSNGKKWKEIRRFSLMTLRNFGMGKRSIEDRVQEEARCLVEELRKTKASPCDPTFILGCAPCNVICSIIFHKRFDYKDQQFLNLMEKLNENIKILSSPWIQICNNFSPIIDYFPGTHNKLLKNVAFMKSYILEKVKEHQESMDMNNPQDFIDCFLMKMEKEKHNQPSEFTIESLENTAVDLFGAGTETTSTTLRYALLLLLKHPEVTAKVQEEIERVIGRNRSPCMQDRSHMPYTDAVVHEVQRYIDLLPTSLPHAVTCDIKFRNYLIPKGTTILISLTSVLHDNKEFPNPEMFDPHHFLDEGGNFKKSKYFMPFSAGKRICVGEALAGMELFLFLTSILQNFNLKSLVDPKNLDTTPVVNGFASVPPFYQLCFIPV
Chain of Cytochrome P450 2D6 (P10635 whole entry): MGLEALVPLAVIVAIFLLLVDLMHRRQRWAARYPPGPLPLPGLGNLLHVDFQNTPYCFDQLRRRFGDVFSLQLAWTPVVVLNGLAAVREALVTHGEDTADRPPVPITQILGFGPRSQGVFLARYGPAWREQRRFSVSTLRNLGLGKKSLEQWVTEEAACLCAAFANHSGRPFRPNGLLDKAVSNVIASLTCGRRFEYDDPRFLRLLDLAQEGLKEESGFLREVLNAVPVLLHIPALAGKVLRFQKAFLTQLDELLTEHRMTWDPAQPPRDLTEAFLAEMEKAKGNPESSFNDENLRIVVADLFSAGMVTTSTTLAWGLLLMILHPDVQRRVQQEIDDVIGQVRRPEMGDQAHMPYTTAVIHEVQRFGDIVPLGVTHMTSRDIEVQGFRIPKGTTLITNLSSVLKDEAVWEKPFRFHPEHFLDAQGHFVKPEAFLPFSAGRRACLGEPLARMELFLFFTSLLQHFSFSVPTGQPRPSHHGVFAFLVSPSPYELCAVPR
Chain of Luciferin 4-monooxygenase (P08659 whole entry): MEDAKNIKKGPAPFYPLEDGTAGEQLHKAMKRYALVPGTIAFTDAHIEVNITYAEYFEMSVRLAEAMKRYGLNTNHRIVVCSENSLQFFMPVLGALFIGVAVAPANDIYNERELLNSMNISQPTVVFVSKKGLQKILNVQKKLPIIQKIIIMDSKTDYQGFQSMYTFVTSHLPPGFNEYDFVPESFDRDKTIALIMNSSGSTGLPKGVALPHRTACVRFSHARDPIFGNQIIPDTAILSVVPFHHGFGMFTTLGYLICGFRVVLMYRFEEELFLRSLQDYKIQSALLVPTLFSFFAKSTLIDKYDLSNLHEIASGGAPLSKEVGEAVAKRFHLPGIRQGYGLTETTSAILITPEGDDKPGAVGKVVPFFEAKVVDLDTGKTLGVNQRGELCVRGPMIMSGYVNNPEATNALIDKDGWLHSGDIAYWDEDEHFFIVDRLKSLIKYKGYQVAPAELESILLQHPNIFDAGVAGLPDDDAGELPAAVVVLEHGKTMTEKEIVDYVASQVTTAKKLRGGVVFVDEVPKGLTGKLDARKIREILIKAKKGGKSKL

CNCC[C@H](Oc1ccc(C(F)(F)F)cc1)c1ccccc1
AC50 (Cytochrome P450 2C9): inactive

Cc1ccc2nc(C)c3c(c2c1)N(c1ccc(F)cc1)CC3
EC50 [1]: 3.76 µM (active)
AC50 [2]: 97.9 µM (active)

COc1ccc(C(C(=O)NC2CCCCC2)N2CCC3(CC2)OCCO3)cc1 (stereo unspecified)
AC50 (Cytochrome P450 2C9): inconclusive
AC50 (Cytochrome P450 2D6): 0.316 µM (inconclusive)

Cc1cc(C(=O)COc2cccnc2[N+](=O)[O-])c(C)n1-c1ccccc1F
EC50 [3]: 16.8 µM (active)
AC50 (HEK293 [4]): 2.61 µM (active)
EC50 [5]: 0.791 µM (active)
EC50 [6]: 6.07 µM (active)

COc1ccc(-c2csc(NC(=O)CCn3cnc4ccccc4c3=O)n2)cc1OC
IC50 (H9c2): 27.9 µM (active)

Cc1nc2cc(NC(=O)c3ccc([N+](=O)[O-])s3)ccc2s1
IC50 (HEK293 [7]): > 20 µM (inactive)
EC50 [3]: 4.17 µM (active)
IC50 (HEK293 [8]): > 20 µM (inactive)
EC50 (HEK293 [9]): 3.16 µM (active)
EC50 [5]: 0.95 µM (active)
EC50 [6]: < 0.1 µM (active)
IC50 (HEK293 [10]): > 20 µM (inactive)

CN(C)C1(CNC(=O)CC(NC(=O)c2ccccc2Cl)c2ccccc2)CCCCC1 (stereo unspecified)
EC50 [1]: 0.299 µM (active)
EC50 [11]: 0.668 µM (active)

O=C(CCc1nc(O)c2ccccc2n1)N1CCN(S(=O)(=O)c2ccccc2Br)CC1
IC50 (H9c2): > 79 µM (inactive)

COc1ccc(N2CCN(S(=O)(=O)c3ccc4c(c3)CCCC4)CC2)c([N+](=O)[O-])c1
AC50 (Cytochrome P450 2C9): inconclusive

Cc1ccsc1C(=O)C1CCCN(Cc2ccccc2O)C1 (stereo unspecified)
EC50 [1]: 4.22 µM (active)
EC50 [12]: > 260 µM (inactive)

Cc1cc(C)n(-c2nc(NCCN(C)C)c3c4c(sc3n2)COC(C)(C)C4)n1
AC50 [2]: 100 µM (inactive)

COc1ccc(-c2cn3ccc(C)cc3n2)cc1
EC50 [13]: 1.13 µM (active)
EC50 [14]: 9.75 µM (active)
AC50 (HEK293 [4]): 2.62 µM (active)

CNCCOc1ccccc1-c1ccccc1
AC50 [15]: > 20 µM (inactive)

O=C(CCCN1C(=O)c2cccc3cccc(c23)C1=O)N1CCN(c2ccccc2O)CC1
IC50 (H9c2): 9.95 µM (active)

CCOc1ccc2nc(NC(=O)CN3CCC(n4nnc5cc(F)ccc54)CC3)sc2c1
IC50 (H9c2): > 79 µM (inactive)

Cc1ccc2nc(O)c3cc(C(=O)NCCN4CCN(C)CC4)sc3c2c1
AC50 [2]: 56.7 µM (active)

O=C(CCCc1ccc(N(CCCl)CCCl)cc1)NCc1ccccc1
AC50 (HEK293 [4]): 2.74 µM (active)

N#CC1(NC(=O)COC(=O)Cn2[nH]c(=O)c3ccccc3c2=O)CCCCC1
IC50 (H9c2): > 79 µM (inactive)

C[C@H](CO)N1C[C@H](C)[C@@H](CN(C)C(=O)[C@H](Cc2ccccc2)N(C)C)OCc2ccccc2-c2c(n(C)c3ccccc23)C1=O
AC50 [16]: 13.3 µM (active)
AC50 [17]: 1.6 µM (active)

CCN(CC)CCC/N=C(\C)C1=C(O)c2ccccc2C1=O
AC50 [15]: > 20 µM (inactive)

FC(F)(F)c1cc(C(F)(F)F)c2ccc(N/N=C/c3cccc(Cl)c3)nc2n1
AC50 (Cytochrome P450 2C19): 17.8 µM (inconclusive)
AC50 (Cytochrome P450 2C9): inconclusive

COc1cccc(C(=O)NNC2=CC(=O)CC(C)(C)C2)c1
AC50 (Cytochrome P450 2C19): 25.1 µM (inconclusive)
AC50 (Cytochrome P450 2C9): inconclusive
AC50 (Cytochrome P450 2D6): 12.6 µM (inconclusive)
